Source: patent publication US8039430B2 (University of Wollongong, priority 2005, dated 2011)
Where a name gives a salt, the structure may show the parent alone. Read-outs that look alike come from different tables or passages of the source. Square brackets hold non-standard residues; d marks the D form. Peptide text beside a SMILES is read from it. * marks the point of attachment. Fmoc = O=C(OCC1c2ccccc2-c2ccccc21)*; dAllylGly = C=CC[C@@H](N)C(=O)O; AllylGly = C=CC[C@H](N)C(=O)O

Legend:
[1] = system: Staphylococcus aureus strain ATCC 6538P; test: Antibacterial screening (MIC) of compounds of Example 2, S. aureus, Mueller-Hinton broth; assay type: cell-based
Protocol: Antibacterial Screening Methodology for Compounds of Example 2
(§1) • All assays used the Staphylococcus aureus strain ATCC 6538P. • Assays described in Chapter 5 additionally used the vancomycin-resistant enterococci and vancomycin-sensitive enterococci strains Ef243, Ef449, Ef820 and Ef487. Culture Media • Mueller-Hinton Broth Medium (MHB): MHB (Oxoid CM405) was prepared with final concentrations of […] MgCl2 and 2 μg/mL CaCl2. Culture medium was pre-warmed for approximately 2-3 h at 37° C. before use. • Mueller-Hinton Agar Medium (MHA): MMB containing 1.5% Agar (Merck Agar 1.01614). Maintenance of Bacteria • From a thawed cryovial, the bacteria was streaked onto MHA and the plate incubated overnight at 37° C. • From this plate, 10 cryovials were prepared by looping several colonies into 0.5 mL of 20% glycerol solution. The cryovials were immediately stored at −140° C. Preparation of Seed Cultures • A cryovial was removed from −140° C. storage and thawed at room temperature. • An MHA plate was streaked with a loopful of bacterial suspension and incubated overnight at 37° C. to create a parent plate (P1). • A daughter plate (D1) was streaked from the parent plate and incubated overnight at 37° C. […] The second parent plate (P2) was used to generate two additional daughter plates using the procedure outlined above before being discarded. • Cryovials were used twice to prepare parent plates (P1 and P2) before being discarded. […] A vancomycin control set (triplicate) and a compound negative control set (triplicate) were also included on each plate (FIG. 1). • The inoculated culture medium was incubated at 37° C. for 30 min, with shaking at 130 rpm. • Using a multichannel pipette, the contents of the first row were mixed before 50 μL was transferred to the second row. The pipette tips were changed and the process repeated by 50 μL of the mixed broth solutions in the second row being transferred to the third row. This process was repeated until the last row contained either the diluted test compound or a control (vancomycin or compound-negative). […] Antibacterial Testing of Compounds of Example 2 Introduction
(§2) The specific testing procedures and protocols are outlined in the section “Antibacterial Screening Methodology for the Compounds of Example 2”.
The antibacterial activity results are measured by minimum inhibitory concentration (MIC), which is the lowest concentration of compound necessary to prevent bacterial growth.

E.f449 = test: Antibacterial screening (MIC) of compounds of Example 2, E.f449; assay type: cell-based, Enterococcus faecium; details: Example 2 compounds, enterococci strain E.f449; for MIC: Enterococcus faecium, read-out: Antibacterial activity μg/mL, E.f449
Protocol: as §1, §2
(§3) Vancomycin was used as the standard/control.

E.f820 = test: Antibacterial screening (MIC) of compounds of Example 2, E.f820; assay type: cell-based, Enterrococci faecium; details: Example 2 compounds, fully vancomycin-resistant strain E.f820; for MIC: read-out: Antibacterial activity μg/mL, E.f820
Protocol: as §1, §2, §3

E.f987 = test: Antibacterial screening (MIC) of compounds of Example 2, E.f987; assay type: cell-based, Enterococcus faecium; details: Example 2 compounds, enterococci strain E.f987; for MIC: Enterococcus faecium, read-out: Antibacterial activity μg/mL, E.f987
E.f243 = test: Antibacterial screening (MIC) of compounds of Example 2, E.f243; assay type: cell-based, Enterococcus faecium; details: Example 2 compounds, enterococci strain E.f243; for MIC: Enterococcus faecium, read-out: Antibacterial activity μg/mL, E.f243
Protocol: as §1, §2, §3

[2] = Staphylococcus aureus, ATCC6538P, Example 2 compounds (linear cationic peptides), S. aureus, vancomycin-susceptible strain, read-out: Antibacterial activity μg/mL, S.a
[3] = Staphylococcus aureus, ATCC6538P, Example 2 compounds, S. aureus, 18 h, 37° C., read-out: Antibacterial activity (MIC μg/mL)
[4] = Example 2 compounds (linear cationic peptides), S. aureus, vancomycin-susceptible strain
[5] = Staphylococcus aureus, ATCC6538P, 18 h, read-out: Antibacterial activity (MIC μg/mL)

C=CCOc1ccc(C[C@H](NC(=O)[C@@H](CCCNC(=N)N)NC(=O)COc2ccc3ccccc3c2-c2c(OCC=C)ccc3ccccc23)C(=O)OC)cc1.Cl (atropisomer, axis not shown) [Compound 120]
MIC [1, 2]: 3.9 µg/mL | MIC (E.f449): 62.5 µg/mL | MIC (E.f820): 62.5 µg/mL | MIC (E.f987): 62.5 µg/mL | MIC (E.f243): 62.5 µg/mL

C=CC[C@H](NC(=O)[C@@H](CCCNC(=N)N)NC(=O)[C@@H](CCCCN)NC(=O)COc1ccc2ccccc2c1-c1c(O)ccc2ccccc12)C(=O)OCc1ccccc1.Cl.Cl (atropisomer, axis not shown) [Compound 136, Benzyl(2S,5R,8R)-2-allyl-3,6,9-triaza-8-(butylamino)-5-(3-guanidinopropyl)-11-(2-[2′-hydroxy-{1,1′}-(S)-binaphthalen-2-yloxy])-4,7,10-trioxoundecanoate dihydrochloride]
MIC [1, 2]: 7.8 µg/mL | MIC (E.f449): 62.5 µg/mL | MIC (E.f820): 62.5 µg/mL | MIC (E.f987): 125 µg/mL | MIC (E.f243): 125 µg/mL

COC(=O)[C@@H]1CC=CCOc2ccc(cc2)C[C@@H](NC(C)=O)C(=O)N[C@@H](CCCNC(=N)N)C(=O)N1.Cl [Compound 56, (7S,10S,13R,4E/Z)-13-Acetamido-8,11-diaza-10-(3-[amino{imino}methylamino]propyl)-7-methoxycarbonyl-2-oxa-9,12-dioxo-1(1,4)phenylenacyclotetradecaphane-4-ene]
MIC [1, 3]: 125 µg/mL

C=CC[C@@H](NC(=O)[C@@H](CCCNC(=N)N)NC(=O)OCC1c2ccccc2-c2ccccc21)C(=O)OC.Cl [Compound 71, Methyl(2R,5R)-2-allyl-3-aza-5-(9H-9-fluorenylmethyloxycarboxamido)-8-(guanidino)-4-oxooctanoate hydrochloride] (Fmoc-[dR]-[dAllylGly]-OMe)
MIC [1, 3]: 125 µg/mL

C=CCOc1ccc2ccccc2c1-c1c(OCC(=O)N[C@H](CCCNC(=N)N)C(=O)Nc2cccc(C(=O)OC)c2)ccc2ccccc12.Cl (atropisomer, axis not shown) [Compound 156, Methyl(3R)-3-(6-(2-[2′-allyloxy-{1,1′}-(S)-binaphthalen-2-yloxy])-1,4-diaza-3-(3-guanidylpropyl)-2,5-dioxohexyl)benzoate hydrochloride]
MIC [1, 2]: 3.9 µg/mL | MIC (E.f449): 125 µg/mL | MIC (E.f820): 62.5 µg/mL | MIC (E.f987): 62.5 µg/mL | MIC (E.f243): 125 µg/mL

C=CC[C@H](NC(=O)[C@@H](CCCNC(=N)N)NC(=O)[C@H](NCCCC)NC(=O)COc1ccc2ccccc2c1-c1c(OCc2ccccc2)ccc2ccccc12)C(=O)OCc1ccccc1.Cl.Cl [Compound 134, Benzyl(2S,5R,8R)-2-allyl-3,6,9-triaza-11-(2-[2′-benzyloxy-{1,1′}-(S)-binaphthalen-2-yloxy])-8-(butylamino)-5-(3-guanidinopropyl)-4,7,10-trioxoundecanoate dihydrochloride]
Antibacterial activity μg/mL, S.a [1, 4]: 3.9 µg/mL | Antibacterial activity μg/mL, E.f449 (E.f449): 62.5 µg/mL | Antibacterial activity μg/mL, E.f820 (E.f820): 62.5 µg/mL | Antibacterial activity μg/mL, E.f987 (E.f987): 125 µg/mL | Antibacterial activity μg/mL, E.f243 (E.f243): 62.5 µg/mL

C=CCOc1ccc(C[C@H](NC(C)=O)C(=O)N[C@H](CCCCN)C(=O)N[C@@H](Cc2ccc(OCC=C)cc2)C(=O)OC)cc1.Cl [Compound 83, Methyl(2S,5R,8S)-2,8-di(4-allyloxybenzyl)-5-(4-aminobutyl)-3,6,9-triaza-4,7,10-trioxoundecanoate hydrochloride]
MIC [1, 3]: 125 µg/mL

C=CC[C@@H](NC(=O)[C@H](CCCNC(=N)N)NC(=O)OCC1c2ccccc2-c2ccccc21)C(=O)OC.Cl [Compound 72, Methyl(2R,5S)-2-allyl-3-aza-5-(9H-9-fluorenylmethyloxycarboxamido)-8-(guanidino)-4-oxooctanoate hydrochloride] (Fmoc-Arg-[dAllylGly]-OMe)
MIC [1, 3]: 125 µg/mL

COC(=O)[C@@H]1Cc2ccc(cc2)OCC=CCOc2ccc(cc2)C[C@H](NC(C)=O)C(=O)N[C@H](CCCCN)C(=O)N1.Cl [Compound 65, (10S,13R,16S,4E/Z)-16-Acetamido-13-(4-aminobutyl)-11,14-diaza-10-methoxycarbonyl-2,7-dioxa-12,15-dioxo-1(1,4),8(4,1)-diphenylenecycloheptadecaphane-4-ene]
MIC [1, 3]: 15.6 µg/mL

C=CCOc1ccc(C[C@H](NC(C)=O)C(=O)N[C@H](CCCCN)C(=O)N[C@@H](CC=C)C(=O)OC)cc1 [Compound 77, hydrochloride]
MIC [1, 5]: 125 µg/mL

C=CCOc1ccc(C[C@H](NC(=O)[C@@H](CCCNC(=N)N)NC(=O)OCC2c3ccccc3-c3ccccc32)C(=O)OC)cc1.Cl [Compound 75]
MIC ([1]; Example 2 compounds, S. aureus, best activity named in the text): 7.8 µg/mL | MIC [1, 3]: 7.8 µg/mL

C=CC[C@H](NC(=O)[C@H](CCCCN)NC(=O)[C@H](Cc1ccc(-c2cc3ccccc3c3ccccc23)cc1)NC(C)=O)C(=O)OC.Cl [Compound 119]
MIC [1, 2]: 15.6 µg/mL | MIC (E.f449): > 125 µg/mL | MIC (E.f820): > 125 µg/mL | MIC (E.f987): > 125 µg/mL | MIC (E.f243): > 125 µg/mL

C=CCOc1ccc2ccccc2c1-c1c(OCC(=O)N[C@H](CCCCN)C(=O)N[C@H](CCCNC(=N)N)C(=O)N[C@@H](CC=C)C(=O)OCc2ccccc2)ccc2ccccc12.Cl.Cl (atropisomer, axis not shown) [Compound 132]
MIC [1, 2]: 3.9 µg/mL | MIC (E.f449): 31.3 µg/mL | MIC (E.f820): 31.3 µg/mL | MIC (E.f987): 62.5 µg/mL | MIC (E.f243): 31.3 µg/mL

Methyl(2S,5S)-2-(4-allyloxybenzyl)-3-aza-5-(9H-9-fluorenylmethylcarboxamido)-8-guanidino-4-oxononanoate hydrochloride [Compound 76]
Antibacterial activity (MIC μg/mL) ([1]; Example 2 compounds, S. aureus, 18 h, 37° C.): 15.6 µg/mL

C=CC[C@H](NC(=O)[C@@H](CCCNC(=N)N)NC(=O)OCC1c2ccccc2-c2ccccc21)C(=O)OC.Cl [Compound 69, Methyl(2S,5R)-2-allyl-3-aza-5-(9H-9-fluorenylmethyloxycarboxamido)-8-(guanidino)-4-oxooctanoate hydrochloride] (Fmoc-[dR]-[AllylGly]-OMe)
MIC [1, 3]: 125 µg/mL

COC(=O)[C@@H]1CC=CCOc2ccc(cc2)C[C@H](NC(C)=O)C(=O)N[C@H](CCCCN)C(=O)N1 [Compound 12, (7S,10R,13S,4E/Z)-13-Acetamido-10-(4-aminobutyl)-8,11-diaza-7-methoxycarbonyl-2-oxa-9,12-dioxo-1(1,4)phenylenacyclotetradecaphane-4-ene hydrochloride]
MIC [1, 5]: 62.5 µg/mL

C=CCOc1ccc(C[C@H](NC(=O)[C@@H](CCCCN)NC(=O)OCC2c3ccccc3-c3ccccc32)C(=O)OC)cc1.Cl [Compound 73, Methyl(2S,5R)-2-(4-allyloxybenzyl)-9-amino-3-aza-5-(9H-9-fluorenylmethyloxycarboxamido)-4-oxononanoate hydrochloride]
MIC [1, 3]: 31.3 µg/mL

C=CCOc1ccc(C[C@H](NC(=O)[C@H](CCCCN)NC(=O)OCC2c3ccccc3-c3ccccc32)C(=O)OC)cc1.Cl [Compound 74, Methyl(2S,5S)-2-(4-allyloxybenzyl)-9-amino-3-aza-5-(9H-9-fluorenylmethyloxycarboxamido)-4-oxononanoate hydrochloride]
MIC [1, 3]: 15.6 µg/mL

C=CC[C@H](NC(=O)[C@H](CCCNC(=N)N)NC(=O)OCC1c2ccccc2-c2ccccc21)C(=O)OC.Cl [Compound 70, Methyl(2S,5S)-2-allyl-3-aza-5-(9H-9-fluorenylmethyloxycarboxamido)-8-(guanidino)-4-oxooctanoate hydrochloride] (Fmoc-Arg-[AllylGly]-OMe)
MIC [1, 3]: 125 µg/mL

C=CCOc1ccc2ccccc2c1-c1c(OCC(=O)N[C@H](CCCN)C(=O)Nc2cccc(C(=O)NOCc3ccccc3)c2)ccc2ccccc12.Cl [Compound 161]
Antibacterial activity μg/mL, S.a [1, 4]: 15.6 µg/mL | Antibacterial activity μg/mL, E.f820 (E.f820): 62.5 µg/mL
